According to article PMC3566764, “Thioester derivatives of the natural product psammaplin A as potent histone deacetylase inhibitors” (Beilstein Journal of Organic Chemistry, 2013):
Where two headings read alike, the source gives them in different places.

Columns and labels:
[1] = molecular target: T1, recombinant human HDAC6 (rHDAC6) (Homo sapiens, UniProt Q9UBN7); assay: rHDAC6 inhibition, coupled Boc-Lys(Ac)-AMC/trypsin fluorescence assay; type: biochemical; conditions: purified recombinant human HDAC6
T1 construct: purchased BPS Bioscience (US)
T1 sequence (Q9UBN7 1-1215): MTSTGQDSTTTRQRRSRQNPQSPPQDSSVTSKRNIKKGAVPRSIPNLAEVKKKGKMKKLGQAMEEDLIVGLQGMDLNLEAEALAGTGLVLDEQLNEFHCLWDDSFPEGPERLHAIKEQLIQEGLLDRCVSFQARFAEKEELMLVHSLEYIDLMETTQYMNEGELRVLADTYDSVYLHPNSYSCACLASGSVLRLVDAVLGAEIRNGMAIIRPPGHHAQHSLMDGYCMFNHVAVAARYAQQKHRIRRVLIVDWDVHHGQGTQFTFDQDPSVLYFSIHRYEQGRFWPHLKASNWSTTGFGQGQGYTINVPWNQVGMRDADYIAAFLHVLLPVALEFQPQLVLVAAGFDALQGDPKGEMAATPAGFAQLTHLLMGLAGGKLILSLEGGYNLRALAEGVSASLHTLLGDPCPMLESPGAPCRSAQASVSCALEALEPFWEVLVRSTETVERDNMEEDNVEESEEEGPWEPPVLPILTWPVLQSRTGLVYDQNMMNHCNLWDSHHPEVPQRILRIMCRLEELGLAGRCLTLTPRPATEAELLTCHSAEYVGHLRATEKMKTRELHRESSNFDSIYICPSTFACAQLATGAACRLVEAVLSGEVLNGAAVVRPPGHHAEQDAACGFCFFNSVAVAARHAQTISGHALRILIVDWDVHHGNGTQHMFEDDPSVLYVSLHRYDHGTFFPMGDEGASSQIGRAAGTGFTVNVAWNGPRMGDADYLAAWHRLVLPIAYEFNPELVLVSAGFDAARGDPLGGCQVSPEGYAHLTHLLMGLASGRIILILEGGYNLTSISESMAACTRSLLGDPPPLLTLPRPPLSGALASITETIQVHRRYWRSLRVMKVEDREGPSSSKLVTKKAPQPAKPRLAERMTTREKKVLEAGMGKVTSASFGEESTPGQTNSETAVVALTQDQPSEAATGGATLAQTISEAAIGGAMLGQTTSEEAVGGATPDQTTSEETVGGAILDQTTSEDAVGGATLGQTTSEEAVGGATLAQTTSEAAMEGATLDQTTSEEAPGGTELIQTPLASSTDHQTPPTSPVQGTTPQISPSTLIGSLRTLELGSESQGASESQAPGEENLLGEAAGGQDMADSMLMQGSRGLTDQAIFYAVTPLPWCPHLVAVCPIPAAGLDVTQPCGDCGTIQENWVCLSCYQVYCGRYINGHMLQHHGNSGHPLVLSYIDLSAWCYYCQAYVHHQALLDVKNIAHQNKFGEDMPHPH
Experimental: (§1) HDAC assays were performed as previously reported. The recombinant human histone deacetylases rHDAC1 and rHDAC6 were obtained from BPS Bioscience (US).
(§2) All reactions were performed in black half area 96-well microplates (Greiner bio-one, Germany) according to the general procedure described by Wegener et al. with some minor modifications. […] The buffer components were purchased from Merck (Germany), Roth (Germany) and Sigma-Aldrich.
(§3) The enzyme reaction was initiated by the addition of Boc-Lys(Ac)-AMC substrate. The reaction mixture was incubated at 30 °C in the dark and stopped after 60 min by the addition of a mixture of 70 µM trypsin and 200 nM SAHA. The fluorescence of AMC served as an indirect measure of HDAC enzyme activity. The kinetics of AMC release was measured on a PolarStar fluorescence plate reader (BMG) with an excitation wavelength of 340 nm and an emission wavelength of 460 nm. Complete cleavage of deacetylated Boc-Lys-AMC by trypsin was achieved after about 10–15 min. The fluorescence intensity of the plateau was averaged over at least 5 min and normalized with respect to the percentage of enzyme activity. Finally, the normalized fluorescence intensities were plotted versus the concentration of test compounds and fitted to a four-parameter logistic model to calculate the IC50 values.

[2] = molecular target: T2, rHDAC1 (Homo sapiens, UniProt Q13547); assay: rHDAC1 inhibition, coupled Boc-Lys(Ac)-AMC/trypsin fluorescence assay; type: biochemical; conditions: for IC50^6/1 (ratio IC50 HDAC6/IC50 HDAC1): isoform selectivity in vitro; for IC50: purified recombinant human HDAC1
T2 construct: purchased BPS Bioscience (US)
T2 sequence (Q13547 whole entry, canonical isoform): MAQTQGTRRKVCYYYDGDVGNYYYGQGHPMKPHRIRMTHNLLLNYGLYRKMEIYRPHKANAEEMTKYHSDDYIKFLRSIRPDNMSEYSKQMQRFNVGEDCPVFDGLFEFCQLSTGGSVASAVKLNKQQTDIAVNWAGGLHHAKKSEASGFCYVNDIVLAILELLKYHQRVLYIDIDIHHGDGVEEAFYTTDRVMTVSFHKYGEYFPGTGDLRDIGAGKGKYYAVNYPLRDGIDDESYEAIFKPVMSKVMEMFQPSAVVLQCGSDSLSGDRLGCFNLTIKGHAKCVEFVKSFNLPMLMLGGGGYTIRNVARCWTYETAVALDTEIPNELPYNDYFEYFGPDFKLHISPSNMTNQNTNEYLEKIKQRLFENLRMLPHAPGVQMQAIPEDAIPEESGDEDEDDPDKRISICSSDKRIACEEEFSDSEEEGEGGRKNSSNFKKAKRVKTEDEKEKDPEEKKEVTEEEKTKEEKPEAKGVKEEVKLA
Experimental: as §1, §2, §3

[3] = tested on: WI38 (normal human lung fibroblast); assay: Cytotoxicity against WI38 cell line; type: cell-based; conditions: for IC50: Homo sapiens, WI-38, WI38 cells
Experimental: (§4) Thioesters 7–9 were assayed against A549, MCF7 and WI38 cell lines, in addition to recombinant human rHDAC1 (class I) and recombinant human HDAC6 (rHDAC6, class II) as previously reported. Psammaplin A (3), prereduced psammaplin A thiol (4), and SAHA (1) were included as control compounds. IC50^6/1 is defined by the ratio IC50^HDAC6/IC50^HDAC1 and was used as an indicator of isoform selectivity in vitro.

[4] = molecular target: T2, rHDAC1; assay: rHDAC1 inhibition as a function of initial incubation time; type: biochemical; conditions: thioester at IC50 concentration, incubation 1–60 minutes
Experimental: An alternative hypothesis for the high potency of the thioester inhibitors is that the HDAC enzyme cleaves the acetyl group directly, utilizing its intrinsic deacetylase activity. Inhibition of rHDAC1 was measured (at the IC50 concentration of thioester) as a function of the initial incubation time (1–60 minutes) of rHDAC1 with thioesters 7 and 9 (Figure 2). […] Finally, we assessed whether the use of thioester inhibitors could influence the assay readout, when using our coupled HDAC assay. Trypsin-dependant generation of the fluorescence intensity (2nd step of our coupled assay) was discounted as a source of false-positive activity, since trypsin was used in a large excess (430 μM) compared to the thioesters (low micromolar to nanomolar). Direct compound inhibition of trypsin would therefore not be significant in the overall readout on stoichiometry grounds.
Figure 2 rHDAC1 was incubated with a predetermined IC50 concentration of 7 (left) and 9 (right) for 1–60 minutes, and the remaining rHDAC1 activity (Y-axis, %) was recorded and plotted as a function of the incubation time (X-axis, minutes).
A serial dilution of test compounds was pre-incubated with 7.4 nM rHDAC1 or 2.8 nM rHDAC6, at 21 ± 1 °C in the dark for different periods of time as indicated. […] The fluorescence of AMC served as an indirect measure of HDAC enzyme activity. […]

[5] = tested on: A549 (human lung carcinoma); assay: Cytotoxicity against A549 cell line; type: cell-based; conditions: for IC50: Homo sapiens, A549 cells
Experimental: as §4

[6] = tested on: MCF7 (human breast carcinoma); assay: Cytotoxicity against MCF7 cell line; type: cell-based; conditions: MCF7 cells
Experimental: as §4

[7] = molecular target: T2, rHDAC1; set-up: method as in PMID 22280363; conditions: in brackets, cited from earlier work
[8] = tested on: MCF7 (human breast carcinoma); set-up: method as in PMID 22280363; conditions: in brackets, cited from earlier work
[9] = tested on: A549 (human lung carcinoma); set-up: method as in PMID 22280363; conditions: in brackets, cited from earlier work
[10] = molecular target: T1, recombinant human HDAC6 (rHDAC6); set-up: method as in PMID 22280363; conditions: in brackets, cited from earlier work
[11] = tested on: WI38 (normal human lung fibroblast); set-up: method as in PMID 22280363; conditions: in brackets, cited from earlier work
[12] = first value: corresponding disulfide
[13] = second value: corresponding thiol

CO/N=C(\Cc1ccc(OC)c(Br)c1)C(=O)NCCSC(C)=O [Compound 7, (E)-(S)-2-(3-(3-Bromo-4-methoxyphenyl)-2-(methoxyimino)propanamido)ethyl ethanethioate]
IC50 [1]: > 50000 nM
IC50^6/1 (ratio IC50 HDAC6/IC50 HDAC1) [2]: > 417
IC50 [2]: 120 nM
times less potent than the corresponding free thiol analogue against rHDAC1 ([2]; thioester vs free thiol): 8 times
IC50 [3]: 17 µM
variation of rHDAC1 inhibition with initial incubation time [4]: No variation of enzymatic inhibition
IC50 [5]: 44 µM
IC50 [6]: 12 µM

COc1ccc(CC(=O)C(=O)NCCSC(C)=O)cc1Br [Compound 9, (S)-2-(3-(3-Bromo-4-methoxyphenyl)-2-oxopropanamido)ethyl ethanethioate]
IC50 [1]: 9500 nM
IC50^6/1 (ratio IC50 HDAC6/IC50 HDAC1) [2]: > 20
IC50 [2]: 480 nM
activity against WI38 cells at the highest concentration tested ([3]; 50 μM): inactive
IC50 [3]: > 50 µM
variation of rHDAC1 inhibition with initial incubation time [4]: No variation of enzymatic inhibition
activity against A549 cells at the highest concentration tested ([5]; 50 μM): inactive
IC50 [5]: > 50 µM
IC50 [6]: 21 µM

O=C(NCCSSCCNC(=O)/C(Cc1ccc(O)c(Br)c1)=N/O)/C(Cc1ccc(O)c(Br)c1)=N/O [PSA (3), psammaplin A]
IC50 [1]: 2800 nM
IC50^6/1 (ratio IC50 HDAC6/IC50 HDAC1) [2]: 62
IC50 [2]: 45 nM
IC50 [3]: 3.4 µM
IC50 [5]: 7.5 µM
IC50 [6]: 1.3 µM

O=C(NCCS)/C(Cc1ccc(O)c(Br)c1)=N/O [PSA-SH (4)]
IC50 [1]: 360 nM
IC50^6/1 (ratio IC50 HDAC6/IC50 HDAC1) [2]: 360
IC50 [2]: 1 nM
IC50 [3]: 3.4 µM
IC50 [5]: 2.5 µM
IC50 [6]: 2.4 µM

O=C(CCCCCCC(=O)Nc1ccccc1)NO [SAHA (1), suberoylanilide hydroxamic acid]
IC50^6/1 (ratio IC50 HDAC6/IC50 HDAC1) [2]: 7

CON=C(Cc1ccc(OC)c(Br)c1)C(=O)NCCSSCCNC(=O)C(Cc1ccc(OC)c(Br)c1)=NOC [disulfide of 7]
IC50 [7, 12]: 220 nM
IC50^6/1 (ratio IC50 HDAC6/IC50 HDAC1) [7, 12]: > 230
IC50 [8, 12]: 13 µM
IC50 [9, 12]: 46 µM
IC50 [10, 12]: > 50000 nM

COc1ccc(CC(=NO)C(=O)NCCSSCCNC(=O)C(Cc2ccc(OC)c(Br)c2)=NO)cc1Br [disulfide of 8]
IC50 [7, 12]: 43 nM
IC50^6/1 (ratio IC50 HDAC6/IC50 HDAC1) [7, 12]: 46
IC50 [11, 12]: 2.2 µM
IC50 [8, 12]: 0.63 µM
IC50 [9, 12]: 4.1 µM
IC50 [10, 12]: 2000 nM

COc1ccc(CC(=O)C(=O)NCCSSCCNC(=O)C(=O)Cc2ccc(OC)c(Br)c2)cc1Br [disulfide of 9]
IC50 [7, 12]: 9000 nM
IC50^6/1 (ratio IC50 HDAC6/IC50 HDAC1) [7, 12]: 0.9
IC50 [11, 12]: 4.1 µM
IC50 [8, 12]: 3.9 µM
IC50 [9, 12]: 10 µM
IC50 [10, 12]: 8000 nM

CON=C(Cc1ccc(OC)c(Br)c1)C(=O)NCCS [thiol of 7]
IC50 [7, 13]: 15 nM
IC50^6/1 (ratio IC50 HDAC6/IC50 HDAC1) [7, 13]: 180
IC50 [11, 13]: 10 µM
IC50 [8, 13]: 12 µM
IC50 [9, 13]: 5.1 µM
IC50 [10, 13]: 2700 nM

COc1ccc(CC(=NO)C(=O)NCCS)cc1Br [thiol of 8]
IC50 [7, 13]: 2 nM
IC50^6/1 (ratio IC50 HDAC6/IC50 HDAC1) [7, 13]: 1772
IC50 [11, 13]: 1.1 µM
IC50 [8, 13]: 0.61 µM
IC50 [9, 13]: 0.16 µM
IC50 [10, 13]: 3200 nM

COc1ccc(CC(=O)C(=O)NCCS)cc1Br [thiol of 9]
IC50 [7, 13]: 1100 nM
IC50^6/1 (ratio IC50 HDAC6/IC50 HDAC1) [7, 13]: 0.22
IC50 [11, 13]: 14 µM
IC50 [8, 13]: 3.4 µM
IC50 [9, 13]: 11 µM
IC50 [10, 13]: 250 nM
